Reference: paper PMC8497620, “Structure and inhibition of Cryptococcus neoformans sterylglucosidase to develop antifungal agents” (Nature Communications, 2021)
“And” between values parts separate entries of the source, which are not always exact repeats. Equal values may be shown once. “Also recorded” adds a separate entry of the source.

Tests used:
C. neoformans H99 = type: in vivo, Cryptococcus neoformans; details: Hit 1 intranasally, fluconazole intraperitoneally
Experimental: For animal studies, 4-week-old CBA/J (Envigo) female mice were used. Mouse experiments were performed in full compliance with a protocol approved by Stony Brook University (IACUC number 341588) and in compliance with the United States Animal Welfare Act (Public Law 98–198). The experiments were carried out in facilities accredited by the Association for Assessment and Accreditation of Laboratory Animal Care. Mice were divided into sets of 12 mice for each treatment or control group (4 animals per cage) kept in an animal room (temperature, 22–24 °C; relative humidity, 35–45%) with artificial 12–12 h dark/light cycle. For the experiment with intraperitoneal (i.p.) treatment, mice were infected intranasally with 10 µL of a suspension containing 1 × 10^6 C. neoformans H99 cells and subsequently treated through i.p. injection with 10 mg/kg/day of hit 1 in a final volume of 100 µL of vehicle containing 10% PEG 200 in PBS. The untreated animals received 100 µL of vehicle. For the experiment with intranasal (i.n.) treatment, mice were infected with 1 × 10^5 C. neoformans H99 cells and received i.n. treatment with hit 1 in a final volume of 10 µL. Another group received treatment with 10 mg/kg/day of fluconazole i.p. and a third group received the combined treatment of hit1 by i.n. and fluconazole by i.p. Animals receiving only vehicle i.n. were used as a control group. In both experiments, three mice of each group were euthanized at day 3, 6, 9, and 14 post infection for CFU recovery from lungs and CFU recovery from brain on day 14.

C. neoformans Sgl1 [1] = target: T1, C. neoformans Sgl1 (Cryptococcus neoformans var. grubii, UniProt J9W473); assay: Sgl1 inhibition with res-glp substrate (HTS, single-compound dose-response); type: biochemical; details: res-glp as substrate (100 µM), primary screen; read-out: IC50 against Sgl1
Experimental: Resorufin-3β-D-glucopyranoside (res-glp, Sigma-Aldrich) enzyme kinetic assays were performed according to methods described by Urban et al.[16] with modifications. Reaction buffer contained 50 mM citric acid, 176 mM K2HPO4, pH 6, 0.01% Tween-20, and 10 mM sodium taurocholate. The reactions were carried out in black 96-well plates using 20 ng of enzyme with 100 μM res-glp substrate. In all, 10 μL/well of res-glp substrate was added to each well and the reaction was initiated by adding 20 μL enzyme (20 ng). After incubation at 37 °C for 30–40 min, the fluorescence was read at an excitation of 570 (±10) nm and an emission of 610 (±10) nm on a VersaMax™ Microplate Reader from Molecular Devices. A standard curve was prepared with serial dilutions of the free fluorophore, resorufin, in the same volume of assay buffer.
A ChemBridge DIVERSet-CL library (San Diego, CA) containing 50,000 compounds was screened to identify small molecules that inhibit C. neoformans Sgl1. The library was prepared in a 96-well plate format containing a cocktail of 10 compounds per well at 1 mM each in 100% DMSO. The cocktail plates were first diluted to 100 μM each (1:10 dilution in Dulbecco’s phosphate-buffered saline, DPBS) resulting in 10% DMSO. In order to screen the compound cocktails at […] in 1% DMSO in a final reaction volume of 30 μL an aliquot of 3 μL was added to 17 μL of buffer containing 20 ng of enzyme and the reaction was started adding 10 μL of 100 μM res-glp. A negative control without enzyme and positive controls with and without DMSO were prepared. The plates were incubated at 37 °C for 40 min.
The Z′-factor was used for the assessment of the efficiency of the HTS assay for each individual plate. Values greater than 0.5 has been considered as an indicator of an excellent screening assay quality.

[2] = test system: human lung epithelial cancer cell line A549; details: A549 cells, 24 h, MTT
Experimental: The cells were maintained in Dulbecco’s modified eagle medium containing 10% fetal bovine serum and 1% penicillin–streptomycin. At passage 11, 10^5 cells were transferred into each well of 96-well plates and cultured for 18–24 h for the cells to adhere to the well surface. After, the medium was removed and a fresh medium containing the selected compounds at a concentration range of 1–512 μM were added to the wells. Controls with equivalent serial concentrations of DMSO were also evaluated and compared with a control without DMSO. The plate was incubated at 37 °C with 5% CO2. After 24 h, the supernatant was removed and 50 μL of 5 mg/mL 3-(4,5-dimethylthiazol-2-yl)-2,5-diphenyltetrazoliumbromide (MTT) solution in phosphate-buffered saline (PBS) was added to each well. The plates were incubated for an additional 4 h and the formazan crystals formed inside the cell was dissolved by adding 50 μL DMSO.

C. neoformans Sgl1 [3] = target: T1, C. neoformans Sgl1; assay: Enzymatic evaluation of C. neoformans Sgl1 against the fungal glucosylceramide (LC-MS); type: biochemical; details: 10 μg substrate, 10 or 50 μg Sgl1, pH 5.5, 37 °C, 4 h
Experimental: (§1) To verify the enzymatic activity of C. neoformans Sgl1 against the fungal long-chain glucosylceramide (GlcCer, OH-Δ8,9-methyl-glucosylceramide), kindly provided by Khojin (Japan). The reactions used 10 μg of substrate and 10 or 50 μg of C. neoformans Sgl1 or cerezyme (Genzyme Corporation, Cambridge, MA, USA) in 100 μL acetate buffer pH 5.5 incubated at 37 °C for 4 h[11]. The reaction was terminated by adding 300 μL of chloroform/methanol (1:1 ratio) and the lower phase was collected and dried. 9-Methyl-ceramide production was monitored by liquid chromatography-mass spectrometry (LC-MS).

[4] = Hydrolysis of fungal long-chain glucosylceramide by cerezyme (9-methyl-ceramide by LC-MS); type: biochemical; details: 4 h; for 9-methyl ceramide: 10 μg fungal GlcCer, 37 °C
Experimental: as §1

T1 sequence (J9W473 entry or part of it): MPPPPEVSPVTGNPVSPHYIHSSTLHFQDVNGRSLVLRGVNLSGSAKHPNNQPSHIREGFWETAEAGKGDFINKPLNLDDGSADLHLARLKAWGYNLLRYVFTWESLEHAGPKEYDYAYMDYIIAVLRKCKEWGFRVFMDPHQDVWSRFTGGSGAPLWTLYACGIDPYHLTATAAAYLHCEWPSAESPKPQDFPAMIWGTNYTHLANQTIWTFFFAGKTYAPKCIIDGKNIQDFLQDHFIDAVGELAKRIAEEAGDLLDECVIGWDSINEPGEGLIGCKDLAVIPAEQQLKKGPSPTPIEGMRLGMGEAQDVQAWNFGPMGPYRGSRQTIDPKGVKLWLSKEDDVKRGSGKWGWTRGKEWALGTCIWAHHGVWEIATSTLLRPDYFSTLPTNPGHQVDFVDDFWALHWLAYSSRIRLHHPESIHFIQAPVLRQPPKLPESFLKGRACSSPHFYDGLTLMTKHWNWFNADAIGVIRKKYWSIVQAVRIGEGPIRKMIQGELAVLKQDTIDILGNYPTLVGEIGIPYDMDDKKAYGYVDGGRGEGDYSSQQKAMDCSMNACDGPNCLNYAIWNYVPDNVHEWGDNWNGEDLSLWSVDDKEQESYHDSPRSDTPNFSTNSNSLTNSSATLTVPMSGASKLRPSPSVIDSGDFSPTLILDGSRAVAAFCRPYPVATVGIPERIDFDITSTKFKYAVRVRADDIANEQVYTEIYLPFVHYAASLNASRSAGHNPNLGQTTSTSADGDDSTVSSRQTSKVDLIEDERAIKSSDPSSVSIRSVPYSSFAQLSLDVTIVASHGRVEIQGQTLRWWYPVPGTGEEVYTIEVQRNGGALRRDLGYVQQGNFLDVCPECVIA

## OC(Cn1cncn1)(Cn1cncn1)c1ccc(F)cc1F [Fluconazole, fluconazole, reference compound]
C. neoformans H99; 14 days of treatment
  lung CFU compared to vehicle: significant difference among CFU recovered from the lungs; also recorded: slightly reduced lung CFU
C. neoformans H99; 14 days
  brain dissemination / CFU recovered from the brain: did not prevent C. neoformans brain dissemination
C. neoformans H99; day 6 post infection, 10 mg/kg/day each, 10 mg/kg/day
  Lung (CFU/mL): 60000 CFU/mL and 120000 CFU/mL and 92000 CFU/mL

## CN1C[C@H](NS(=O)(=O)c2cc(Cl)ccc2Cl)C[C@H]1CO [Hit 13]
C. neoformans Sgl1 [1]
  IC50: 2000 nM
[2]
  LD50 (lethal dose 50): 217.3 µM

## CN1C[C@H](Nc2nc(C(C)(C)C)nc3c2cnn3C)C[C@H]1CO [Hit 14]
C. neoformans Sgl1 [1]
  IC50: 1000 nM
[2]
  LD50 (lethal dose 50): 357 µM

## CCCCCCCCCCCCCCCCC(O)C(=O)NC(COC1OC(CO)C(O)C(O)C1O)C(O)C=CCCC=C(C)CCCCCCCCC (centres unmarked) [fungal glucosylceramide, OH-Δ8,9-methyl-glucosylceramide]
C. neoformans Sgl1 [3]
  hydrolysis by Sgl1: unable to detect hydrolysis

B1: Cerezyme: recombinant human glucosylceramidase (Genzyme Corporation) (protein, chains of the INN, looked up)
chain: ARPCIPKSFGYSSVVCVCNATYCDSFDPPTFPALGTFSRYESTRSGRRMELSMGPIQANHTGTGLLLTLQPEQKFQKVKGFGGAMTDAAALNILALSPPAQNLLLKSYFSEEGIGYNIIRVPMASCDFSIRTYTYADTPDDFQLHNFSLPEEDTKLKIPLIHRALQLAQRPVSLLASPWTSPTWLKTNGAVNGKGSLKGQPGDIYHQTWARYFVKFLDAYAEHKLQFWAVTAENEPSAGLLSGYPFQCLGFTPEHQRDFIARDLGPTLANSTHHNVRLLMLDDQRLLLPHWAKVVLTDPEAAKYVHGIAVHWYLDFLAPAKATLGETHRLFPNTMLFASEACVGSKFWEQSVRLGSWDRGMQYSHSIITNLLYHVVGWTDWNLALNPEGGPNWVRNFVDSPIIVDITKDTFYKQPMFYHLGHFSKFIPEGSQRVGLVASQKNDLDAVALMHPDGSAVVVVLNRSSKDVPLTIKDPAVGFLETISPGYSIHTYLWHRQ
[4]; Cerezyme 10 μg
  9-methyl ceramide: 221.543 pmol/mL and 250.417 pmol/mL and 226.634 pmol/mL and 267.483 pmol/mL
[4]; Cerezyme 50 g (so in the source)
  9-methyl ceramide: 243.428 pmol/mL and 279.737 pmol/mL and 384.828 pmol/mL and 393.256 pmol/mL
[4]; positive control, pH 5.5, 37 °C
  hydrolysis of fungal glucosylceramide: readily hydrolyzed fungal glucosylceramide
